Experimental data: patent US5340925A, “Normal human growth regulatory receptor for TGF-β” (Oncogen, priority 1992, dated 1994)
Read-outs that look alike come from different tables or passages of the source.

Key:
HEPM cells [1] = experiment: Growth stimulation assay: incorporation of 5-[125I]iodo-2'-deoxyuridine into DNA of quiescent HEPM cells; type: cell-based, human; settings: 66 h + 6 h radionuclide label
Description: FIGS. 1(A) and 1(B) Bioactivity of TGF-β on HEPM cells: incorporation of radionuclide into DNA. Results are presented as percent stimulation vs the picomolar (pM) concentration of TGF-β. Percent stimulation was calculated as follows: treated (cpm)-untreated (cpm)/untreated (cpm) x 100. Panel A: TGF-β1, treatment. Panel B: TGF-β2 treatment.
HEPM cells (5,000 cells/50 μl ) were subcultured in 96-well tissue culture plates (Falcon 30072) in growth medium comprising minimal essential medium (Gibco, Grand Island, N.Y.) supplemented with 10% heat-inactivated fetal bovine serum, 600 μg/ml L-glutamine, 500 μg/ml penicillin and 500 μg/ml streptomycin for a 24-hour period at 37° C. in a humidified 5% CO2 /95% air atosphere. A nondividing, quiescent state of growth was achieved by subsequent incubation for 48 hours in growth medium supplemented with 0.5% fetal bovine serum. Quiescent cells were then stimulated to proliferate by the addition of fetal bovine serum (10 μl ) and test samples of TGF-β1, or TGF-β2 (50 μl). The cells were incubated an additional 66 hours at 37° C. […] The amount of cell growth was measured by the amount of radionuclide incorporated into the DNA of actively growing cells.

[2] = tested on: TGF-β receptor on HEPM cells; experiment: TGF-β receptor down-regulation in TGF-β1 treated HEPM cells, assessed by radioreceptor assay; type: cell-based, human; settings: for Kd: HEPM cells treated 18 hours with 100 pM TGF-β1
Description: (§1) HEPM cells were grown to confluence (1×10^5 cells/well) in 24-well Costar tissue culture plates. Prior to the binding assay, cells were pre-incubated in serum-free growth medium at 37° C. for 4 hours to allow for the dissociation of TGF-β from occupied cells surface receptors. The resulting monolayers were washed 2 times in binding buffer (Dulbecco's MEM+0.1% BSA+25 mM HEPES). 250 μl of binding buffer containing 0.5 μg/ml [^125 I]-iodoTGF-β1, (specific activity of 100 μCi/μg) together with increasing amounts of unlabeled TGF-β1 were added to duplicate wells. Steady state binding was carried out at 4° C. for 3 hours. After incubation cells were washed 3 times with cold binding buffer and solubilized in 200 μl of Triton solution (20 mM HEPES, 1% Triton X-100, 10% glycerol, 0.01% BSA, pH 7.4). Radioactivity was determined using a gamma spectrometer. Non-specific binding was determined in the presence of a 1,000-fold molar excess unlabeled TGF-β1.
Briefly, HEPM cells were treated with 100pM TGF-β1, for 18 hours, washed with serum-free medium, and incubated in fresh serum-free medium for 60 minutes to allow for the disassociation of residually bound TGF-β1. The radioreceptor assay described in Materials and Methods was used to assess the extent of receptor down-regulation in the treated cells relative to untreated control cells. […] The combined total receptor down-regulation observed was 57%.

HEPM cells [3] = experiment: Stimulation of anchorage independent growth assay (soft agar); type: cell-based, human; settings: 50 pM TGF-β1 at plating, colonies enumerated on day 13
Description: FIGS. 3(A) and 3(B) Bioactivity of TGF-β on HEPM cells: stimulation of growth in soft agar. Cells were treated with 50 pM TGF-β1, at the time of plating and colony formation was enumerated on day 13.
A 0.5 ml base layer of 0.5% agar (Agar Noble; Difco Laboratories, Detroit, Mich.) in growth medium was added to 24-well Costar tissue culture plates 0.5 ml 0.3% agar in growth medium containing 1×10^4 HEPM cells and various concentrations of TGF-β or other test samples was overlaid on the base layer of agar in triplicate wells. The plates were incubated at 37° C. in a humidifed atmosphere of 5% CO2 in air for up to 14 days without refeeding. Colonies were enumerated unfixed and unstained. The number of colonies with more than 6 cells were scored.

[4] = tested on: HEPM cell-surface receptors for TGF-β; experiment: Radioreceptor assay: [125I]-iodo-TGF-β1 in competition with unlabeled TGF-β1, Scatchard analysis; type: binding, human; settings: comparison of growth stimulation and receptor occupancy, FIG. 6
Description: as §1
The radioreceptor assay described in Materials and Methods was used to characterize the affinity and number of cell-surface receptors for TGF-β on HEPM cells. Specific binding of [^125 I]-iodo-TGF-βin these assays was 20% of the total radioligand present. […] Half-maximal displacement of radioligand occurred at 100 pM (2.6 ng/ml) unlabeled TGF-β1. Competitive binding data were plotted according to the method of Scatchard (Scatchard, et al., 1947, Ann. NY Acad Sci 51:660-672) and the results are presented in FIG. 5. A distinctly curvilinear isotherm was obtained indicating the presence of at least two classes of binding sites on HEPM cells. […] Quantitative analysis determined that HEPM cells contain a total of 287,000 TGF-β receptors per cell (55,400 high affinity and 231,600 low affinity sites).

HEPM cells [5] = experiment: Growth stimulation in monolayer monitored by cell counting; type: cell-based, human; settings: 50 pM TGF-β1, 96 hours post-treatment
Description: FIG. 2 Bioactivity of TGF-β on HEPM cells: cell proliferation. Cell counts were taken at 24 hour intervals until 120 hours post treatment. The data is presented as the number of cells per well vs incubation time (hours). By 96 hours, cultures treated with 50 pM TGF-β1, ( ) had reached a cell density twice that of untreated cultures ( ).
Alternatively, growth stimulation in monolayer was monitored by cell counting. Cell monolayers were washed with PBS and then treated with 100 μl 0.25% trypsin solution at 37° C. until cells became detached from the culture surface. Fetal bovine serum (100 μl) was then added to each well to inhibit further action by trypsin. The resulting cell suspension was counted by the standard hemacytometer method. The viability of cells, greater than 98% in these examples, was determined by trypan blue dye-exclusion.

[6] = 100 pM TGF-β1, 18 hours, vs control cells

## TGF-β1: Transforming growth factor-Beta type 1; two identical disulfide linked subunits having molecular weights of 13,000; recombinant material used
HEPM cells [1]
  ED50 in stimulating the proliferation of HEPM cells (half-maximal growth stimulation): 5 pM
[2]; 100 pM TGF-β1, 18 hours
  high affinity binding sites in treated cells: 14,000 sites/cell
  low affinity binding sites in treated cells: 108,800 sites/cell
[2]; [6]
  combined total receptor down-regulation: 57%
  down-regulation of the high affinity binding sites: 74%
  down-regulation of the low affinity binding sites: 53%
[2]; read-out: kd, high affinity binding sites
  Kd: 40 pM
[2]; read-out: kd, low affinity binding sites
  Kd: 974 pM
HEPM cells [3]
  mean colony number in soft agar: 8±1
[4]
  receptors occupied when full biological response is obtained: 20%
HEPM cells [5]
  cell density compared with untreated cultures: twice
